From ChEMBL document CHEMBL3994647, “Synthesis and in vitro cytotoxic evaluation of new 1H-benzo[d]imidazole derivatives of dehydroabietic acid” (Bioorg Med Chem Lett, 2017)

Legend:
[1] = system: HepG2; test: Cytotoxicity against human HepG2 cells assessed as reduction in cell viability after 48 hrs by MTT assay; type: functional, cell-based; conditions: HepG2, 48 h
[2] = system: L02; test: Cytotoxicity against human LO2 cells assessed as reduction in cell viability after 48 hrs by MTT assay; type: cell-based; conditions: L02, 48 h
[3] = system: SMMC-7721; test: Cytotoxicity against human SMMC7721 cells assessed as reduction in cell viability after 48 hrs by MTT assay; type: functional, cell-based; conditions: SMMC-7721, 48 h
[4] = system: SMMC-7721; test: Induction of apoptosis in human SMMC7721 cells assessed as late apoptotic cells at 0.18 uM after 24 hrs by Annexin V-APC/7-AAD staining based flow cytometry (reference value: 10.72%); type: functional
[5] = system: SMMC-7721; test: Induction of apoptosis in human SMMC7721 cells assessed as early apoptotic cells at 0.18 uM after 24 hrs by Annexin V-APC/7-AAD staining based flow cytometry (reference value: 7.44%); type: functional
[6] = system: SMMC-7721; test: Cell cycle arrest in human SMMC7721 cells assessed as accumulation at G2/M phase after 24 hrs by propidium iodide staining based flow cytometry; type: functional
[7] = system: SMMC-7721; test: Induction of apoptosis in human SMMC7721 cells assessed as early apoptotic cells at 0.36 uM after 24 hrs by Annexin V-APC/7-AAD staining based flow cytometry (reference value: 7.44%); type: functional
[8] = system: SMMC-7721; test: Cell cycle arrest in human SMMC7721 cells assessed as accumulation at G2/M phase at 0.18 uM after 24 hrs by propidium iodide staining based flow cytometry (reference value: 3.43%); type: functional
[9] = system: SMMC-7721; test: Cell cycle arrest in human SMMC7721 cells assessed as accumulation at G0/G1 phase at 0.36 uM after 24 hrs by propidium iodide staining based flow cytometry (reference value: 72.89%); type: functional
[10] = system: SMMC-7721; test: Cell cycle arrest in human SMMC7721 cells assessed as accumulation at S phase at 0.72 uM after 24 hrs by propidium iodide staining based flow cytometry (reference value: 23.68%); type: functional
[11] = system: SMMC-7721; test: Induction of apoptosis in human SMMC7721 cells assessed as live cells at 0.72 uM after 24 hrs by Annexin V-APC/7-AAD staining based flow cytometry (reference value: 81.07%); type: functional
[12] = system: SMMC-7721; test: Induction of apoptosis in human SMMC7721 cells assessed as late apoptotic cells at 0.72 uM after 24 hrs by Annexin V-APC/7-AAD staining based flow cytometry (reference value: 10.72%); type: functional
[13] = system: SMMC-7721; test: Induction of apoptosis in human SMMC7721 cells assessed as necrotic cells at 0.18 uM after 24 hrs by Annexin V-APC/7-AAD staining based flow cytometry (reference value: 0.77%); type: functional
[14] = system: SMMC-7721; test: Induction of apoptosis in human SMMC7721 cells assessed as live cells at 0.18 uM after 24 hrs by Annexin V-APC/7-AAD staining based flow cytometry (reference value: 81.07%); type: functional
[15] = system: SMMC-7721; test: Cell cycle arrest in human SMMC7721 cells assessed as accumulation at G0/G1 phase at 0.72 uM after 24 hrs by propidium iodide staining based flow cytometry (reference value: 72.89%); type: functional
[16] = system: SMMC-7721; test: Cell cycle arrest in human SMMC7721 cells assessed as accumulation at G2/M phase at 0.36 uM after 24 hrs by propidium iodide staining based flow cytometry (reference value: 3.43%); type: functional
[17] = system: SMMC-7721; test: Cell cycle arrest in human SMMC7721 cells assessed as accumulation at G0/G1 phase at 0.18 uM after 24 hrs by propidium iodide staining based flow cytometry (reference value: 72.89%); type: functional
[18] = system: SMMC-7721; test: Cell cycle arrest in human SMMC7721 cells assessed as accumulation at G2/M phase at 0.72 uM after 24 hrs by propidium iodide staining based flow cytometry (reference value: 3.43%); type: functional
[19] = system: SMMC-7721; test: Cell cycle arrest in human SMMC7721 cells assessed as accumulation at S phase at 0.36 uM after 24 hrs by propidium iodide staining based flow cytometry (reference value: 23.68%); type: functional
[20] = system: SMMC-7721; test: Induction of apoptosis in human SMMC7721 cells assessed as live cells at 0.36 uM after 24 hrs by Annexin V-APC/7-AAD staining based flow cytometry (reference value: 81.07%); type: functional
[21] = system: SMMC-7721; test: Induction of apoptosis in human SMMC7721 cells assessed as necrotic cells at 0.36 uM after 24 hrs by Annexin V-APC/7-AAD staining based flow cytometry (reference value: 0.77%); type: functional
[22] = system: SMMC-7721; test: Induction of apoptosis in human SMMC7721 cells after 24 hrs by Annexin V-APC/7-AAD staining based flow cytometry; type: functional, cell-based
[23] = system: SMMC-7721; test: Induction of apoptosis in human SMMC7721 cells assessed as early apoptotic cells at 0.72 uM after 24 hrs by Annexin V-APC/7-AAD staining based flow cytometry (reference value: 7.44%); type: functional
[24] = system: SMMC-7721; test: Cell cycle arrest in human SMMC7721 cells assessed as accumulation at S phase at 0.18 uM after 24 hrs by propidium iodide staining based flow cytometry (reference value: 23.68%); type: functional
[25] = system: SMMC-7721; test: Induction of apoptosis in human SMMC7721 cells assessed as necrotic cells at 0.72 uM after 24 hrs by Annexin V-APC/7-AAD staining based flow cytometry (reference value: 0.77%); type: functional
[26] = system: SMMC-7721; test: Induction of apoptosis in human SMMC7721 cells assessed as late apoptotic cells at 0.36 uM after 24 hrs by Annexin V-APC/7-AAD staining based flow cytometry (reference value: 10.72%); type: functional

Compound: CCN(CC)c1ccc(/C=N/c2nc3c(Br)cc4c(c3[nH]2)CC[C@H]2[C@](C)(C(=O)OC)CCC[C@]42C)c(O)c1
- IC50 [1]: 0.16 µM
- IC50 [2]: 2.91 µM
- IC50 [3]: 0.87 µM

Compound: COC(=O)[C@]1(C)CCC[C@]2(C)c3cc(Br)c4nc(NCc5cc(F)ccc5O)[nH]c4c3CC[C@@H]12
- IC50 [1]: 4.6 µM
- IC50 [2]: 31.4 µM
- IC50 [3]: 10.6 µM

Compound: COC(=O)[C@]1(C)CCC[C@]2(C)c3cc(Br)c4nc(/N=C/c5ccc6ccccc6c5O)[nH]c4c3CC[C@@H]12
- IC50 [1]: 1.08 µM
- IC50 [2]: 10.8 µM
- IC50 [3]: 2.08 µM

Compound: COC(=O)[C@]1(C)CCC[C@]2(C)c3cc(Br)c4nc(/N=C/c5cc([N+](=O)[O-])ccc5O)[nH]c4c3CC[C@@H]12
- IC50 [1]: 2.4 µM
- IC50 [2]: 8.71 µM
- IC50 [3]: 1.28 µM

Compound: COC(=O)[C@]1(C)CCC[C@]2(C)c3cc(Br)c4nc(/N=C/c5cc(Br)ccc5O)[nH]c4c3CC[C@@H]12
- IC50 [1]: 0.73 µM
- IC50 [2]: 7.22 µM
- IC50 [3]: 2.84 µM

Compound: COC(=O)[C@]1(C)CCC[C@]2(C)c3cc(Br)c4nc(/N=C/c5cc(C)ccc5O)[nH]c4c3CC[C@@H]12
- IC50 [1]: 0.12 µM
- IC50 [2]: 3.02 µM
- IC50 [3]: 0.56 µM

Compound: COC(=O)[C@]1(C)CCC[C@]2(C)c3cc(Br)c([N+](=O)[O-])c([N+](=O)[O-])c3CC[C@@H]12
- IC50 [1]: 34.2 µM
- IC50 [2]: > 50 µM
- IC50 [3]: 29.8 µM

Compound: CCN(CC)c1ccc(CNc2nc3c(Br)cc4c(c3[nH]2)CC[C@H]2[C@](C)(C(=O)OC)CCC[C@]42C)c(O)c1
- IC50 [1]: 3.38 µM
- IC50 [2]: 12.2 µM
- IC50 [3]: 3.76 µM

Compound: COC(=O)[C@]1(C)CCC[C@]2(C)c3cc(Br)c4nc(N)[nH]c4c3CC[C@@H]12
- IC50 [1]: 15.3 µM
- IC50 [2]: > 50 µM
- IC50 [3]: 8.74 µM

Compound: COC(=O)[C@]1(C)CCC[C@]2(C)c3cc(Br)c4nc(NCc5cccc(F)c5O)[nH]c4c3CC[C@@H]12
- IC50 [1]: 1.65 µM
- IC50 [2]: 12.7 µM
- IC50 [3]: 4.27 µM

Compound: COC(=O)[C@]1(C)CCC[C@]2(C)c3cc(Br)c4nc(/N=C/c5ccccc5O)[nH]c4c3CC[C@@H]12
- IC50 [1]: 0.21 µM
- IC50 [2]: 6.27 µM
- IC50 [3]: 2.47 µM

Compound: COC(=O)[C@]1(C)CCC[C@]2(C)c3cc(Br)c4nc(NCc5cc(C)ccc5O)[nH]c4c3CC[C@@H]12
- IC50 [1]: 6.22 µM
- IC50 [2]: 17.3 µM
- IC50 [3]: 0.83 µM

Compound: COC(=O)[C@]1(C)CCC[C@]2(C)c3cc(Br)c4nc(/N=C/c5cccc(F)c5O)[nH]c4c3CC[C@@H]12
- IC50 [1]: 0.43 µM
- IC50 [2]: 8.35 µM
- IC50 [3]: 2 µM

Compound: COC(=O)[C@]1(C)CCC[C@]2(C)c3cc(Br)c4nc(/N=C/c5cc(Cl)ccc5O)[nH]c4c3CC[C@@H]12
- IC50 [1]: 1.81 µM
- IC50 [2]: 6.56 µM
- IC50 [3]: 2.2 µM

Compound: COC(=O)[C@]1(C)CCC[C@]2(C)c3cc(Br)c4nc(NCc5cc(Cl)ccc5O)[nH]c4c3CC[C@@H]12
- IC50 [1]: 11.8 µM
- IC50 [2]: 26.8 µM
- IC50 [3]: 3.19 µM

Compound: COc1cc([C@@H]2c3cc4c(cc3[C@@H](O[C@@H]3O[C@@H]5CO[C@@H](C)O[C@H]5[C@H](O)[C@H]3O)[C@H]3COC(=O)[C@H]23)OCO4)cc(OC)c1O [ETOPOSIDE]
- IC50 [1]: 0.83 µM
- IC50 [2]: 3.78 µM
- IC50 [3]: 0.15 µM

Compound: COC(=O)[C@]1(C)CCC[C@]2(C)c3cc(Br)c4nc(/N=C/c5ccc(F)cc5O)[nH]c4c3CC[C@@H]12
- IC50 [1]: 1.24 µM
- IC50 [2]: 19 µM
- IC50 [3]: 12.2 µM

Compound: COC(=O)[C@]1(C)CCC[C@]2(C)c3cc(Br)c4nc(NCc5ccccc5O)[nH]c4c3CC[C@@H]12
- IC50 [1]: 22.5 µM
- IC50 [2]: > 50 µM
- IC50 [3]: 3.15 µM

Compound: COC(=O)[C@]1(C)CCC[C@]2(C)c3cc(Br)c4nc(NCc5cc([N+](=O)[O-])ccc5O)[nH]c4c3CC[C@@H]12
- IC50 [1]: 5.52 µM
- IC50 [2]: 18.3 µM
- IC50 [3]: 1.37 µM

Compound: COC(=O)[C@]1(C)CCC[C@]2(C)c3cc(Br)c4nc(NCc5cc(Br)ccc5O)[nH]c4c3CC[C@@H]12
- IC50 [1]: 4.21 µM
- IC50 [2]: 21.6 µM
- IC50 [3]: 4.02 µM

Compound: COC(=O)[C@]1(C)CCC[C@]2(C)c3cc(Br)c4nc(/N=C/c5cc(Cl)cc(Cl)c5O)[nH]c4c3CC[C@@H]12
- IC50 [1]: 0.69 µM
- IC50 [2]: 7.21 µM
- IC50 [3]: 1.72 µM

Compound: COC(=O)[C@]1(C)CCC[C@]2(C)c3cc(Br)c4nc(NCc5ccc6ccccc6c5O)[nH]c4c3CC[C@@H]12
- IC50 [1]: 21.2 µM
- IC50 [2]: > 50 µM
- IC50 [3]: 22.4 µM

Compound: COC(=O)[C@]1(C)CCC[C@]2(C)c3cc(Br)c4nc(NCc5cc(Cl)cc(Cl)c5O)[nH]c4c3CC[C@@H]12
- IC50 [1]: 2.38 µM
- IC50 [2]: 7.26 µM
- IC50 [3]: 0.93 µM

Compound: COC(=O)[C@]1(C)CCC[C@]2(C)c3cc(Br)c4nc(/N=C/c5cc(F)ccc5O)[nH]c4c3CC[C@@H]12
- Activity [4]: 10.44%
- Activity [5]: 12.71%
- Activity [6]: Dose-dependent effect
- Activity [7]: 29.05%
- Activity [8]: 5.96%
- Activity [9]: 73.94%
- Activity [10]: 22.69%
- Activity [11]: 7.97%
- Activity [12]: 81.27%
- Activity [13]: 0.95%
- Activity [14]: 75.91%
- IC50 [1]: 0.61 µM
- Activity [15]: 66.4%
- Activity [16]: 6.45%
- Activity [17]: 76.93%
- Activity [18]: 10.91%
- Activity [19]: 19.61%
- Activity [20]: 59.86%
- Activity [21]: 0.87%
- Activity [22]: Dose-dependent effect
- IC50 [2]: 3.89 µM
- Activity [23]: 9.75%
- IC50 [3]: 0.36 µM
- Activity [24]: 17.11%
- Activity [25]: 1%
- Activity [26]: 10.21%

Compound: COC(=O)[C@]1(C)CCC[C@]2(C)c3cc(Br)c4nc(NCc5ccc(F)cc5O)[nH]c4c3CC[C@@H]12
- IC50 [1]: 4.6 µM
- IC50 [2]: 22.1 µM
- IC50 [3]: 10.6 µM

Compound: COC(=O)[C@]1(C)CCC[C@]2(C)c3cc(Br)c(N)c(N)c3CC[C@@H]12
- IC50 [1]: > 50 µM
- IC50 [2]: > 50 µM
- IC50 [3]: > 50 µM
